Experiments:
Parameters in all cases: MIC Alone: unit not given beside the values
Conditions in all cases: antimycotic agent alone
Blastomyces dermatitidis = tested on: Blastomyces dermatitidis
C. albicans = tested on: C. albicans
Cryptococcus = tested on: Cryptococcus

| Structure (SMILES) | MIC Alone (Blastomyces dermatitidis) | MLC Alone (C. albicans) | MIC Alone (Cryptococcus) | MIC Alone (C. albicans) | MLC Alone (Blastomyces dermatitidis) | MLC Alone (Cryptococcus) |
| --- | --- | --- | --- | --- | --- | --- |
| C[C@@H]1[C@H](O)[C@@H](C)/C=C/C=C/C=C/C=C/C=C/C=C/C=C/[C@H](O[C@@H]2O[C@H](C)[C@@H](O)[C@H](N)[C@@H]2O)C[C@@H]2O[C@](O)(C[C@@H](O)C[C@@H](O)[C@H](O)CC[C@@H](O)C[C@@H](O)CC(=O)O[C@H]1C)C[C@H](O)[C@H]2C(=O)O [AMB, amphotericin B] | 0.29 | > 4.62 | 0.29 |  |  |  |
| OC(Cn1cncn1)(Cn1cncn1)c1ccc(F)cc1F [FLU, fluconazole] | 10 |  | 10 | 2.5 |  |  |
| Clc1ccc(COC(Cn2ccnc2)c2ccc(Cl)cc2Cl)c(Cl)c1 (stereo not drawn) [MON, miconazole] |  |  |  | 1.25 | 5 | 5 |

— patent publication US5436253A, “Pyridonecarboxylic acid derivatives and mycotic infections” (Daiichi Pharmaceutical Co., Ltd., priority 1993, dated 1995)
